According to the NIST ThermoML archive (doi:10.1016/j.jct.2017.03.021):
“And” between values parts separate entries of the source, which are not always exact repeats. Equal values may be shown once.

Experiments:
[1] = Crystal; for vapor or sublimation pressure: Calculated from knudsen effusion weight loss
[2] = Molar enthalpy of transition or fusion; conditions: Crystal; DSC

O=Cc1ccc2c(c1)Cc1ccccc1-2 [9H-fluorene-2-carbaldehyde]
[1]
Conditions | Normal melting temperature [°C] | vapor or sublimation pressure
335.16 K | – | 0.000121 kPa and 0.00012 kPa
337.16 K | – | 0.000147 kPa and 0.000149 kPa and 0.000144 kPa
339.09 K | – | 0.000186 kPa and 0.000185 kPa
341.11 K | – | 0.000231 kPa and 0.000233 kPa
341.16 K | – | 0.000227 kPa
343.08 K | – | 0.000288 kPa and 0.000289 kPa
343.14 K | – | 0.000288 kPa
345.09 K | – | 0.00036 kPa and 0.000361 kPa and 0.000364 kPa
347.16 K | – | 0.000444 kPa and 0.000463 kPa
349.11 K | – | 0.000553 kPa and 0.00054 kPa and 0.000557 kPa
351.09 K | – | 0.000685 kPa and 0.000687 kPa and 0.000681 kPa
353.1 K | – | 0.000861 kPa and 0.000847 kPa and 0.000859 kPa
355.09 K | – | 0.001048 kPa and 0.001057 kPa and 0.001075 kPa
DTA | 84.5 | –

Conditions | Molar enthalpy of transition or fusion [kcal/mol]
[2] | 5.26
